Patent publication US6603046B1, “Bis-aromatic a,β-unsaturated ketones” (Lica Pharmaceuticals A/S, priority 1992, dated 2003)
Converted amounts (≈) assume the structure as drawn. Like-named read-outs stand apart in the source and are kept apart here.

How the values were obtained:
Strain = H37RV [1] = settings: cited from earlier work
Strain = H37RV [2] = assay: MIC with and without 10% human serum; assay type: cell-based; settings: Mycobacterium tuberculosis, H37RV
[3] = system: chloroquine resistant P. falciparum DD2 strain; assay: In vitro growth of P. falciparum DD2, 3H-hypoxanthine uptake (Example 15); assay type: cell-based, Plasmodium falciparum; settings: title: percentage inhibition of 3H-hypoxanthine uptake
[4] = with 10% Human Serum, read-out: MIC+serum
[5] = without 10% Human Serum, read-out: MIC−serum

| SMILES | protein binding (Strain = H37RV [1]) | MIC (Strain = H37RV [2]; [4]) | MIC (Strain = H37RV [2]; [5]) | Growth in % of control (mean ± SEM) ([3]; 0.5 μg/ml) | Growth in % of control (mean ± SEM) ([3]; 1 μg/ml) | Growth in % of control (mean ± SEM) ([3]; 5 μg/ml) | Growth in % of control (mean ± SEM) ([3]; 10 μg/ml) | melting point |
| --- | --- | --- | --- | --- | --- | --- | --- | --- |
| CC(=O)O[C@H]1C[C@@]2(C)[C@@H](C[C@@H](O)[C@H]3[C@@]4(C)CC[C@@H](O)[C@@H](C)[C@@H]4CC[C@@]32C)/C1=C(\CCC=C(C)C)C(=O)O [Fusidic acid] | (90% protein | 32 µg/mL (≈ 61.9 µM) | 8 µg/mL (≈ 15.5 µM) | – | – | – | – | – |
| CC1COc2c(N3CCN(C)CC3)c(F)cc3c(=O)c(C(=O)O)cn1c23 (centres unmarked) [Ofloxacin] | (5% protein | 0.5 µg/mL (≈ 1.38 µM) | 0.5 µg/mL (≈ 1.38 µM) | – | – | – | – | – |
| C=CCOc1ccc(C(=O)/C=C/c2c(OC)cccc2OC)cc1 [2,6-Dimethoxy-4′-allyloxychalcone, 2,6-dimethoxy-4′-prop-2-enyloxychalcone] | – | – | – | 23.3 ± 10.9% | 24.3 ± 9.5% | 40.2 ± 8.7% | 56.7 ± 8.9% | 102 to 103 °C |
| CC[C@@H](CO)NCCN[C@@H](CC)CO [Ethambutol] | (40% protein | 2 µg/mL (≈ 9.79 µM) | 1 µg/mL (≈ 4.89 µM) | – | – | – | – | – |
